Assay results reported in patent US6951881B2, “(1-substituted-indol-3-yl) alkylidenehydrazinecarboximidamide derivatives as 5-hydroxytryptamine-6 ligands” (Wyeth, priority 2002, dated 2005).
pKi: −log10 of the molar value. Like-named read-outs stand apart in the source and are kept apart here.

Target: T1, human cloned 5-HT6 receptors (Homo sapiens, UniProt P50406)
T1 construct: expressed in transfected cells; host or cells: HeLa cells
Format: binding
Details: for pKi: [3H]-LSD 3.0 nM, Hela cell membranes, read-out: 5-HT6 Binding Ki
Protocol: This operation is repeated.
The reaction is allowed to proceed in the dark for 120 min at room temperature, at which time, the bound ligand-receptor complex is filtered off on a 96 well unifilter with a Packard Filtermate® 196 Harvester. The bound complex caught on the filter disk is allowed to air dry and the radioactivity is measured in a Packard TopCount® equipped with six photomultiplier detectors, after the addition of 40.0 μl Microscint®-20 scintillant to each shallow well. The unifilter plate is heat-sealed and counted in a PackardTopCount® with a tritium efficiency of 31.0%.
Specific binding to the 5-HT6 receptor is defined as the total radioactivity bound less the amount bound in the presence of 10.0 μM unlabeled methiothepin. Binding in the presence of varying concentrations of test compound is expressed as a percentage of specific binding in the absence of test compound. The results are plotted as logit % bound versus log concentration of test compound. Nonlinear regression analysis of data points with a computer assisted program Prism® yields both the IC50 and the Ki values of test compounds with 95% confidence limits.
The amount of displacement by the test compound is given in percent (%) inhibition and is derived from the following equation: [formula] where B0 is the amount of CPM bound in the presence of the testing agent. NSB represents the CPM bound in the presence of a saturating concentration of a displacer and TB represents the total amount of CPM bound at zero (0) concentration of test compound.
Alternatively, a linear regression line of decline of data points is plotted, from which the IC50 value can be read off and the Ki value determined by solving the following equation: [formula] where L is the concentration of the radioactive ligand used and KD is the dissociation constant of the ligand for the receptor, both expressed in nM.

[1] = test compound dose 1000 nM, displacement of [3H]-LSD
[2] = test compound dose 100 nM, displacement of [3H]-LSD, read-out: % Inhibition

T1 sequence (P50406 whole entry): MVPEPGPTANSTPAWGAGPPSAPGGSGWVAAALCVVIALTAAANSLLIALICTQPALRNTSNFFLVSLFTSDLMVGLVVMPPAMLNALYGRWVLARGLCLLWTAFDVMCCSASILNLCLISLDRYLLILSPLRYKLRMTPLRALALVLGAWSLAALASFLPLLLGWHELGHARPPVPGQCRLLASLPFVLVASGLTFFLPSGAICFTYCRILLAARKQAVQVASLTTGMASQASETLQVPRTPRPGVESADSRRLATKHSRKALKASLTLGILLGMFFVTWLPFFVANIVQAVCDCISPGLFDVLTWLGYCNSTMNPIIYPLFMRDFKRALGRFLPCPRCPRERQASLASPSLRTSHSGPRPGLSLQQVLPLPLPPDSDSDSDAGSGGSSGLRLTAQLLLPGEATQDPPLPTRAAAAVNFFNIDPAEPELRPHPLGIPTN

Compound | inhibition at 1 µM [1] | further results
N=C(NCCO)NN=Cc1c(-c2ccc(Cl)cc2)[nH]c2ccccc12 [Example 113, 2-{[2-(4-chlorophenyl)-1H-indol-3-yl]methylidene}-N-(2-hydroxyethyl)-1hydrazinecarboximidamide] | 84.1% | –
N=C(N)NN=C1CCCc2[nH]c3ccc(F)cc3c21 [Example 156, 2-(6-fluoro-1,2,3,9-tetrahydro-4H-carbazol-4-ylidene)hydrazinecarboximidamide] | 98.8% | –
COc1ccc(S(=O)(=O)Nc2ccc3[nH]cc(C(C)=NNC(=N)N)c3c2)cc1 [Example 19] | 97.4% | pKi: 9.00
CC(=NNC(=N)N)c1c(-c2ccc(Cl)cc2)n(CCC#N)c2ccccc12 [Example 107, 2-{1-[2-(4-chloro-phenyl)-1-(2-cyano-ethyl)-1H-indol-3-yl]-ethylidene}hydrazinecarboximidamide] | 87.2% | –
COc1ccc(S(=O)(=O)Nc2ccc3c(c2)c(C(C)=NNC(=N)N)cn3C)cc1 [Example 20] | 99% | pKi: 8.52
CN(N=Cc1c(-c2ccc(Cl)cc2)n(CCc2ccccc2)c2ccccc12)C1=NCCN1 [Example 111, N-{[2-(4-chloro-phenyl)-1-(2-phenethyl)-1H-indol-3-yl]-methylene}-N′-(4,5-dihydro-1H-imidazol-2-yl)-N-methylhydrazine] | – | % Inhibition [1]: 37.5%
CN(N=C1CCCc2[nH]c3ccc(Br)cc3c21)C1=NCCN1 [Example 160, 6-bromo-1,2,3,9-tetrahydro-4H-carbazol-4-one 4,5-dihydro-1H-imidazol-2-yl(methyl)hydrazone] | 76% | –
CC(=NNC(=N)N)c1c(-c2ccc(F)cc2)[nH]c2ccccc12 [Example 74, 2-{1-[2-(4-fluoro-phenyl)-1H-indol-3-yl]-ethylidene}hydrazinecarboximidamide] | – | inhibition at 0.01 µM (test compound dose 10 nM, displacement of [3H]-LSD): 38.3%
N=C(N)NN=Cc1c(-c2ccc3ccccc3c2)[nH]c2ccccc12 [Example 51, 2-{[2-(naphthalen-2-yl)-1H-indol-3-yl]methylene}hydrazinecarboximidamide] | – | pKi: 6.96
CCCCCNC(=N)NN=Cc1c(-c2ccc(Cl)cc2)[nH]c2ccccc12 [Example 123, 2-{[2-(4-chlorophenyl)-1H-indol-3-yl]methylidene}-N-pentyl-1hydrazinecarboximidamide] | 70.4% | –
Cc1ccc2[nH]c3c(c2c1)C(=NN(C)C1=NCCN1)CC(c1ccccc1)C3 (stereo not shown) [Example 175, 6-methyl-2-phenyl-1,2,3,9-tetrahydro-4H-carbazol-4-one 4,5-dihydro-1H-imidazol-2-yl(methyl)-hydrazone] | – | inhibition at 0.1 µM [2]: 18.6%
CC(=NNC(=N)N)c1c(-c2ccc(Cl)cc2)n(Cc2ccccc2)c2ccccc12 [Example 93, 2-{1-[1-benzyl-2-(4-chloro-phenyl)-1H-indol-3-yl]-ethylidene}hydrazinecarboximidamide] | 22.3% | –
Cc1nc(Cn2c(-c3ccc(Cl)cc3)c(C=NNC(=N)N)c3ccccc32)cs1 [Example 101, 2-({2-(4-chlorophenyl)-1-[(2-methyl-1,3-thiazol-4-yl)methyl]-1H-indol-3-yl}methylidene)-1hydrazinecarboximidamide] | 24% | –
Cc1ccc2[nH]c3c(c2c1)C(=NNC(=N)N)CC(c1ccccc1)C3 (stereo not shown) [Example 164, 2-(6-methyl-2-phenyl-1,2,3,9-tetrahydro-4H-carbazol-4-ylidene)hydrazinecarboximidamide] | – | inhibition at 0.1 µM [2]: 27.6%
Cc1ccc(Cn2c(-c3ccc(Cl)cc3)c(C=NNC(=N)N)c3ccccc32)cc1 [Example 98, 2-{[2-(4-chloro-phenyl)-1-(4-methyl-benzyl)-1H-indol-3-yl]-methylene}hydrazinecarboximidamide] | 21.1% | –
N=C(N)NN=C(Cc1ccccc1)c1c(-c2ccccc2)n(-c2ccccc2)c2ccccc12 [Example 84, 2-[1-(1,2-diphenyl-1H-indol-3-yl)-2-phenyl-ethylidene]hydrazinecarboximidamide] | 22.9% | –
CC(=NNC(=N)N)c1c(-c2ccc(-c3ccccc3)cc2)n(C)c2ccc(Cl)cc12 [Example 143, 2-[(2-biphenyl-5-chloro-1-methyl-1H-indol-3-yl)-ethylidene]hydrazinecarboximidamide] | – | % Inhibition (test compound dose 100 nM, displacement of [3H]-LSD): 34.6%

Compound | inhibition at 1 µM [1] | further results
C/C(=N\NC(=N)N)c1c(-c2ccc(Cl)cc2Cl)n(C)c2ccc(Cl)cc12 [Example 128, 2-{[5-Chloro-2-(2,4-dichlorophenyl)-1-methyl-1H-indol-3-yl]ethylidene}hydrazinecarboximidamide] | – | inhibition at 0.1 µM: 57.3%
[H]/N=C(/N)NN=C(C)c1c[nH]c2ccc(NS(=O)(=O)c3ccc(-c4ccccc4)cc3)cc12 [Example 35, (Z)-2-[1-[5-[(4-biphenylsulfonyl)amino]-1H-indol-3-yl]ethylidene]hydrazinecarboximidamide] | 96.4% | –
CCCCCNC(=NC)NN=Cc1c(-c2ccc(Cl)cc2)[nH]c2ccccc12 [Example 124, 2-{[2-(4-chlorophenyl)-1H-indol-3-yl]methylidene}-N′-methyl-N-pentyl-1hydrazinecarboximidamide] | 74% | –
N#CCCn1c(-c2ccc(Cl)cc2)c(C=NNC(=N)N)c2ccccc21 [Example 108, 2-{[2-(4-chloro-phenyl)-1-(2-cyano-ethyl)-1H-indol-3-yl]-methylene}hydrazinecarboximidamide] | 92% | –
2-[3-(2-chloro-phenyl)-1-(1,2-diphenyl-1H-indol-3-yl)-allylidene]hydrazinecarboximidamide [Example 88] | – | % Inhibition [1]: 37.5%
N=C(N)NN=C1CC(c2ccccc2)Cc2[nH]c3ccc(Cl)cc3c21 (stereo not shown) [Example 172, 2-(6-chloro-2-phenyl-1,2,3,9-tetrahydro-4H-carbazol-4-ylidene)hydrazinecarboximidamide] | – | inhibition at 0.1 µM [2]: 24.6%
N=C(N)N/N=C1\CCCc2[nH]c3ccc(Cl)cc3c21 [Example 152, 2-(6-Chloro-1,2,3,9-tetrahydro-4H-carbazol-4-ylidene)hydrazine-carboximidamide] | 99.1% | –
COc1ccc2[nH]c3c(c2c1)C(=NNC(=N)N)CCC3 [Example 162, N′-(6-methoxy-1,2,3,9-tetrahydro-4H-carbazol-4-ylidene)carbonohydrazonic diamide] | – | pKi: 8.33; % Inhibition [1]: 98%
N=C(N)NN=C(Cc1ccccc1)c1c(-c2ccc(F)c(Cl)c2)[nH]c2ccccc12 [Example 61, 2-{1-[2-(3-chloro-4-fluoro-phenyl)-1H-indol-3-yl]-2-phenyl-ethylidene}hydrazinecarboximidamide] | 83.9% | –
CN(N=Cc1c(-c2ccc(Cl)cc2)n(Cc2ccccc2)c2ccccc12)C1=NCCN1 [Example 95, N-{[1-benzyl-2-(4-chloro-phenyl)-1H-indol-3-yl]-methylene}-N′-(4,5-dihydro-1H-imidazol-2-yl)-N-methylhydrazine] | – | % Inhibition [1]: 20.0%
CC(C)c1ccc2[nH]c3c(c2c1)C(=NN(C)C1=NCCN1)CC(c1ccccc1)C3 (stereo not shown) [Example 178, 6-isopropyl-2-phenyl-1,2,3,9-tetrahydro-4H-carbazol-4-one 4,5-dihydro-1H-imidazol-2-yl-(methyl)hydrazone] | – | inhibition at 0.1 µM [2]: 25.6%
CC(C)C(=NNC(=N)N)c1c(-c2ccccc2)n(-c2ccccc2)c2ccccc12 [Example 82, 2-[1-(1,2-diphenyl-1H-indol-3-yl)-2-methyl-propylidene]hydrazinecarboximidamide] | 21.5% | –
N=C(N)NN=Cc1c(-c2ccc(Cl)cc2)n(CCc2ccccc2)c2ccccc12 [Example 110, 2-{[2-(4-chloro-phenyl)-1-(2-phenethyl)-1H-indol-3-yl]-methylene}hydrazinecarboximidamide] | – | % Inhibition [1]: 20.9%
CC1(C)CC(=NNC(=N)N)c2c([nH]c3ccc(Br)cc23)C1 [Example 169, 2-(6-bromo-2,2-dimethyl-1,2,3,9-tetrahydro-4H-carbazol-4-ylidene)hydrazinecarboximidamide] | – | inhibition at 0.1 µM [2]: 33.9%
CN(N=C(CCc1ccccc1)c1c(-c2ccccc2)[nH]c2ccccc12)C1=NCCN1 [Example 69, N-(4,5-dihydro-1H-imidazol-2-yl)-N-methyl-N′-[3-phenyl-1-(2-phenyl-1H-indol-3-yl)-propylidene]hydrazine] | 23% | –
CN(N=Cc1c(-c2ccccc2)n(-c2ccccc2)c2ccccc12)C1=NCCN1 [Example 92, N-(4,5-dihydro-1H-imidazol-2-yl)-N′-[(1,2-diphenyl-1H-indol-3-yl)-methylene]-N-methylhydrazine] | 17.8% | –
CN(N=C1CCc2[nH]c3ccc(Cl)cc3c21)C1=NCCN1 [Example 184, 7-Chloro-3,4-dihydrocyclopenta[b]indol-1(2H)-one 4,5-dihydro-1H-imidazol-2-yl-(methyl)hydrazone] | – | inhibition at 0.1 µM: 19.8%
